Data from the Kinase Knowledgebase extract (Sharma et al. 2016).

Biological target: MAPK14 (human) (UniProt Q16539)
Assay: TNF-alpha Release Inhibition (LPS-stimulated PBMCs)
Conditions: pbmc

MAPK14 (human), sequence (Q16539 whole entry, looked up): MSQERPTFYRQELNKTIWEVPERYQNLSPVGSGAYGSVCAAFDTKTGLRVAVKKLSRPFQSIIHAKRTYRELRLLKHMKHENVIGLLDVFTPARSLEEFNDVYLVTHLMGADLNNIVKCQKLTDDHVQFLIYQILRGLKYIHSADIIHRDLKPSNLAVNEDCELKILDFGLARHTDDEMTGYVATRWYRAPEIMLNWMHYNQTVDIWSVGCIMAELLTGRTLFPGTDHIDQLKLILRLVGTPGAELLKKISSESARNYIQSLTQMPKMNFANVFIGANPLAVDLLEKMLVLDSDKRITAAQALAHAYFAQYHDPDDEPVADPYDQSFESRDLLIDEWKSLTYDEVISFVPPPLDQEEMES

IC50	SMILES
400 nM	COc1ccc2c(-c3ccncc3)c(-c3ccc(F)cc3)[nH]c2c1
6 nM	CCCCOc1cc(OC)nc2[nH]c(-c3ccc(F)cc3)c(-c3ccncc3)c12
400 nM	CN(C)c1ccc2c(-c3ccncc3)c(-c3ccc(F)cc3)[nH]c2n1
15 nM	CCCCOc1cc(O)nc2[nH]c(-c3ccc(F)cc3)c(-c3ccncc3)c12
40 nM	Nc1ccc2c(-c3ccncc3)c(-c3cccc(I)c3)[nH]c2n1
60 nM	CCOc1ccc(-c2[nH]c3nc(N)ccc3c2-c2ccncc2)cc1Cl
200 nM	COc1ccc2c(-c3ccncc3)c(-c3ccc(F)cc3)[nH]c2n1
2 nM	Nc1cc(OCc2ccc(F)cc2)c2c(-c3ccncc3)c(-c3ccc(F)cc3)[nH]c2n1
> 10000 nM	Fc1ccc(-c2[nH]c3ccccc3c2-c2ccncc2)cc1

The next lines start with the compound.

SMILES	IC50
Nc1ccc2c(-c3ccncc3)c(-c3ccc(F)cc3)[nH]c2c1	200 nM
Fc1ccc(-c2[nH]c3nc(NCc4ccccc4)ccc3c2-c2ccncc2)cc1	300 nM
CC(=O)Nc1ccc2c(-c3ccncc3)c(-c3ccc(F)cc3)[nH]c2n1	100 nM
Oc1ccc2c(-c3ccncc3)c(-c3ccc(F)cc3)[nH]c2n1	> 10000 nM
Nc1ccc2c(-c3ccncc3)c(-c3ccc(F)c(F)c3)[nH]c2n1	30 nM
Fc1ccc(-c2[nH]c3ncccc3c2-c2ccncc2)cc1	400 nM
Nc1ccc2c(-c3ccncc3)c(-c3cccc(Cl)c3)[nH]c2n1	9 nM
COc1ccc2c(-c3ccncc3)c(-c3cccc(I)c3)[nH]c2c1	100 nM
COc1ccc2c(-c3ccncc3)c(-c3cccc(Cl)c3)[nH]c2c1	125 nM
COc1ccc2c(-c3ccncc3)c(-c3ccc(I)cc3)[nH]c2c1	6500 nM
COc1ccc2c(-c3ccncc3)c(-c3cccc(F)c3)[nH]c2c1	300 nM
